Legend:
Assay in all cases: relative viability (nuclei count vs DMSO), 5 days (fraction); higher = more cells survive
[1] = compound: C1=CC2=NC=CN=C2C=C1/C=C/3\C(=O)NC(=O)S3 + Cc1nc(Nc2ncc(C(=O)Nc3c(C)cccc3Cl)s2)cc(N2CCN(CCO)CC2)n1 [Dasatinib] (partner 0.075 µM)
Procedure, shortened: (§1)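 Lung cancer cell lines in 1536-well plates were dosed by pin tool the day after seeding, either with one drug alone or with a fixed anchor-drug dose plus five library-drug doses (not always all listed) in √10 steps. After 5 days, cells were fixed and their nuclei stained in one step (final 0.05% Triton X-100, 1% formaldehyde, 1 ug/ml Hoechst), then counted on 4× images. Relative viability is the nuclei count in treated wells divided by that in vehicle wells. Values are medians of duplicate plates.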

BGJ398 + Crizotinib = compound: CCN1CCN(c2ccc(Nc3cc(N(C)C(=O)Nc4c(Cl)c(OC)cc(OC)c4Cl)ncn3)cc2)CC1 [BGJ398] + C[C@@H](Oc1cc(-c2cnn(C3CCNCC3)c2)cnc1N)c1c(Cl)ccc(F)c1Cl [Crizotinib] (partner 1 µM)
Procedure, shortened: as §1

BGJ398 + Olaparib = compound: CCN1CCN(c2ccc(Nc3cc(N(C)C(=O)Nc4c(Cl)c(OC)cc(OC)c4Cl)ncn3)cc2)CC1 [BGJ398] + O=C(c1cc(Cc2n[nH]c(=O)c3ccccc23)ccc1F)N1CCN(C(=O)C2CC2)CC1 [Olaparib] (partner 8 µM)
Procedure, shortened: as §1

[2] = compound: C1=CC2=NC=CN=C2C=C1/C=C/3\C(=O)NC(=O)S3 + CS(=O)(=O)CCNCc1ccc(-c2ccc3ncnc(Nc4ccc(OCc5cccc(F)c5)c(Cl)c4)c3c2)o1 [Lapatinib] (partner 2 µM)
Procedure, shortened: as §1

Row | Cell Line | relative viability ([1]; first compound 0.02 µM) | relative viability ([1]; first compound 0.06325 µM) | relative viability ([1]; first compound 0.2 µM) | relative viability ([1]; first compound 0.6325 µM) | relative viability ([1]; first compound 2 µM) | relative viability (BGJ398 + Crizotinib; first compound 0.01 µM) | relative viability (BGJ398 + Crizotinib; first compound 0.03162 µM) | relative viability (BGJ398 + Crizotinib; first compound 0.1 µM) | relative viability (BGJ398 + Crizotinib; first compound 0.3162 µM) | relative viability (BGJ398 + Crizotinib; first compound 1 µM) | relative viability (BGJ398 + Olaparib; first compound 0.01 µM) | relative viability (BGJ398 + Olaparib; first compound 0.03162 µM) | relative viability (BGJ398 + Olaparib; first compound 0.1 µM) | relative viability (BGJ398 + Olaparib; first compound 0.3162 µM) | relative viability (BGJ398 + Olaparib; first compound 1 µM) | relative viability ([2]; first compound 0.02 µM) | relative viability ([2]; first compound 0.06325 µM) | relative viability ([2]; first compound 0.2 µM) | relative viability ([2]; first compound 0.6325 µM) | relative viability ([2]; first compound 2 µM)
1 | NCI-H1355 | 0.476 | 0.599 | 0.709 | 0.714 | 0.47 | 1.01 | 1.02 | 1.03 | 0.962 | 1.08 | 0.714 | 0.769 | 0.736 | 0.729 | 0.7 | 0.811 | 0.929 | 1.05 | 0.919 | 0.766
2 | NCI-H1437 | 0.656 | 0.353 | 0.406 | 0.353 | 0.174 | 0.91 | 0.924 | 0.941 | 1.02 | 0.877 | 0.687 | 0.629 | 0.587 | 0.607 | 0.666 | 0.791 | 0.825 | 0.806 | 0.715 | 0.572
3 | NCI-H1650 | 0.274 | 0.355 | 0.364 | 0.289 | 0.248 | 0.955 | 1.01 | 0.862 | 0.879 | 0.937 | 0.81 | 0.838 | 0.786 | 0.826 | 0.811 | 0.728 | 0.725 | 0.937 | 0.709 | 0.72
4 | NCI-H1651 | 0.403 | 0.452 | 0.461 | 0.311 | 0.21 | 0.843 | 0.865 | 0.874 | 0.876 | 0.892 | 0.183 | 0.169 | 0.188 | 0.165 | 0.162 | 0.793 | 0.899 | 1.05 | 0.718 | 0.685
5 | NCI-H1666 | 0.716 | 0.835 | 0.772 | 0.819 | 0.575 | 0.944 | 1.06 | 0.938 | 1.3 | 0.96 | 0.759 | 0.77 | 0.81 | 0.725 | 0.679 | 0.468 | 0.51 | 0.693 | 0.643 | 0.499
6 | NCI-H1734 | 0.463 | 0.468 | 0.467 | 0.41 | 0.269 | 0.611 | 0.647 | 0.719 | 0.594 | 0.554 | 0.504 | 0.622 | 0.627 | 0.609 | 0.607 | 1.02 |  | 1.11 | 0.999 | 0.756
7 | NCI-H1755 | 0.43 | 0.371 | 0.448 | 0.355 | 0.257 | 0.907 | 0.888 | 0.884 | 0.868 | 0.84 | 0.813 | 0.906 | 0.904 | 0.855 | 0.912 | 0.926 | 0.951 | 1.04 | 0.988 | 0.928
8 | NCI-H1792 | 0.763 | 0.653 | 0.807 | 0.818 | 0.311 | 0.939 | 0.999 | 1.08 | 0.99 | 0.93 | 0.494 | 0.351 | 0.281 | 0.607 | 0.282 | 0.948 | 0.851 | 0.839 | 0.953 | 0.554
9 | NCI-H1915 | 0.297 | 0.313 | 0.332 | 0.297 | 0.282 | 0.847 | 0.869 | 0.998 | 0.936 | 0.886 | 0.231 | 0.285 | 0.252 | 0.256 | 0.246 | 1.01 | 1.1 | 1.02 | 0.928 | 0.971
10 | NCI-H1944 | 0.227 | 0.191 | 0.209 | 0.193 | 0.147 | 0.994 | 1.07 | 1.13 | 1.09 | 1.19 | 0.432 | 0.416 | 0.425 | 0.385 | 0.445 | 0.834 | 0.966 | 0.801 | 0.735 | 0.486
11 | NCI-H1975 | 0.293 | 0.38 | 0.369 | 0.334 | 0.318 | 1.03 | 0.979 | 1.1 | 1.07 | 0.948 | 0.809 | 0.856 | 0.887 | 0.825 | 0.781 | 0.707 | 1.24 | 0.907 | 0.84 | 0.791
12 | NCI-H1993 | 0.516 | 0.592 | 0.667 | 0.581 | 0.521 | 0.866 | 0.794 | 0.912 | 0.959 | 0.922 | 1.02 | 1.08 | 1.01 | 1.02 | 0.997 | 0.784 | 0.776 | 0.846 | 0.829 | 0.743
13 | NCI-H2009 | 0.312 | 0.31 | 0.358 | 0.272 | 0.175 | 1 | 1.04 | 1.02 | 1.04 | 1.02 | 0.614 | 0.759 | 0.697 | 0.718 | 0.682 | 0.873 | 0.965 | 1.03 | 1.03 | 0.802

Source: the supplement of paper PMC10307832
